Experiments:
LLC-GFP cells = assay: In vivo Mdivi-1 treatment during WGP training, phenotyping and LLC-GFP challenge; design: species or system C57Bl/6 mice
Protocol: In vivo Mdivi-1 treatment. 6 weeks old C57B1/6 female mice were i.p. injected with Mdivi-1 (50 mg/kg) or DMSO along with suitable carriers (5% Tween-80 and 40% PEG300) starting day 0 for 6 days. Mdivi-1/DMSO treated mice were also treated with PBS or WGP at day 0. Mice were euthanized at day 7 to harvest the BM and lungs for phenotyping using flow cytometry. In tumor challenging experiment, Mdivi-1/DMSO-treated PBS vs WGP trained mice were i.v. injected with 0.4×10^6 LLC-GFP cells on day 9. Mice were euthanized on day 27. Lungs were then analyzed for tumor burden using flow cytometry.
CyTOF mass cytometry staining, data acquisition, and analysis. Lung single cell suspensions were prepared as described earlier and ex vivo stimulated with PMA/Ionomycin for 4 h at 37° C., 5% CO2. The cells were then harvested, washed with PBS and transferred to sterile-capped culture tubes. Cells were then stained for viability using 5 μM cisplatin (Fluidigm) in serum-free RPMI 1640 for 5 min at RT and washed with complete RPMI 1640. Cells were stained with the surface markers antibodies for 30 min at RT and washed twice with Maxpar cell staining buffer (Fluidigm) followed by fixation with 1 ml of 1X Maxpar Fix I buffer for 30 min at RT. Upon fixation, cells were washed twice with 2 ml of 1X Maxpar Perm-S buffer for 5 min at 800 g, stained for the cytoplasmic/secreted antibodies and incubated for 30 min at RT. Following incubation, cells were washed twice with 1 ml of 1X Maxpar Perm-S buffer for 5 min at 800 g. The cells were then suspended in 1 ml of 1X Maxpar nuclear antigen staining buffer (Fluidigm) and incubated for 30 min at RT, washed twice with Maxpar nuclear antigen staining permeability buffer (Fluidigm) at 800 g for 5 min each. Cells were stained for nuclear antigens and incubated at RT for 30 min, washed twice with Maxpar nuclear antigen staining permeability buffer and fixed with 1.6% formaldehyde for 10 min at RT. The fixed cells were then centrifuged to remove the formaldehyde at 800 g for 5 min and incubated with 125 nM of intercalator iridium (Fluidigm) overnight at 4° C. After overnight incubation, the cells were washed twice with cell staining buffer, pelleted and kept on ice until acquisition using CyTOF. Prior to acquisition, cells were suspended in a 1:9 solution of Cell acquisition solution: EQ 4 element calibration beads (Fluidigm) and acquired using a Helios CyTOF system. Upon acquisition of the samples, the .FCS files were normalized to .fcs files using the CyTOF software for analysis. The data acquired by CyTOF were then analyzed using FlowJo10 and the FlowSOM softwares.

LLC cells = assay: LDH release cytotoxicity assay against LLC cells; settings: Mdivi-1 10 μM, 10:1
Protocol: Cytotoxicity assay. Lung IMs from the PBS vs WGP-trained mice were sorted and co-cultured with LLC cells at different ratios in a 96-well plate. The plates were then incubated at 37° C. with 5% CO2 for 12-16 h. Upon completion of incubation, the supernatants were harvested and assayed for the release of lactate dehydrogenase as per the instructions described in the CyQUANT™ LDH Cytotoxicity Assay Kit (Invitrogen). For the cytotoxicity assay in the presence of Mdivi-1 (10 μM) (Sigma Aldrich), peritoneal macrophages were in vitro trained with PBS or WGP in the presence of Mdivi-1 or DMSO for 6 days. The macrophages were then harvested, counted, and co-cultured with LLC cells at a ratio of 10:1 followed by the lactate dehydrogenase assay for cytotoxicity. In another set of experiments, IMs from the lungs of PBS vs WGP-trained mice were harvested, sorted, and co-cultured with LLC cells (10:1) in the presence of N-acetyl-L-Cysteine (NAC, 1 mM) (Sigma Aldrich) or DMSO and assayed for cytotoxicity.

## COc1cc(-n2c(=S)[nH]c3ccccc3c2=O)c(Cl)cc1Cl [Mdivi-1]
LLC-GFP cells; Mdivi-1 50 mg/kg i.p. daily
  effect on WGP-mediated accumulation of myeloid cells in the lungs: did not affect WGP-mediated accumulation of myeloid cells in the lungs
LLC-GFP cells; Mdivi-1 50 mg/kg i.p. daily, day 7
  effect on WGP-mediated myelopoiesis in the BM: does not inhibit WGP-mediated myelopoiesis in the BM
LLC-GFP cells; Mdivi-1 treated
  lung IM trained phenotype (TNF-α) in WGP trained mice: completely inhibited
LLC-GFP cells; WGP trained + Mdivi-1 vs untrained control
  tumor burdens in the lungs: no difference in the tumor burdens between WGP trained mice treated with Mdivi-1 and untrained control mice
LLC-GFP cells; mouse, in vivo
  F4/80+CD11b+ lung MAMs and PD-L1+/CD206+ lung macrophages, CyTOF: this effect was abolished when mice were treated with Mdivi-1
LLC cells
  effect on cytotoxicity of WGP-trained peritoneal macrophages: abrogated WGP-mediated mtROS production (FIG. 14D) and cytotoxicity against tumor cells
